From ChEMBL document CHEMBL1201862, “PubChem BioAssay data set” (2004)
Active and inactive are the calls of the source.

What was measured:
Beta-galactosidase = Beta-galactosidase (Escherichia coli, UniProt Q8VNN2); experiment: PubChem AID 485352; type: functional
[1] = molecular target: Type-1 angiotensin II receptor (Homo sapiens, UniProt P30556); experiment: AT1 receptor antagonists, dose response, selectivity assay for APJ receptor antagonist project, cell-based, uHTS hits (AID 463214); type: functional;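 note: antagonist potency against angiotensin II stimulated AT1 response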
[2] = molecular target: Dual specificity protein kinase CLK1 (Homo sapiens, UniProt P49759); experiment: CLK1 kinase inhibitors, off-target check, dose response, selectivity assay for Dyrk1A inhibitor project, biochemical, cherry-picked samples (AID 588811)
Keap1/Nrf2 = Keap1/Nrf2 (Homo sapiens, UniProt Q14145); experiment: Keap1-Nrf2 protein-protein interaction inhibitors, dose response, biochemical, fluorescence polarization, cherry-picked samples (AID 588683)
HeLa = experiment: HeLa cell cytotoxicity, dose response, cytotoxicity control, 24 h, cherry-picked samples (AID 504726); type: functional, cell-based; conditions: Homo sapiens;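 note: potency for cytotoxicity as loss of luminescence signal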
[3] = molecular target: T1, RNA-binding protein pos-1 (Caenorhabditis elegans, UniProt G5EF15); experiment: inhibitors of POS-1/mex-3 RNA binding, dose response, biochemical, fluorescence polarization (AID 1964);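 note: purified POS-1 fused to maltose binding protein made in E. coli; potency of compounds blocking POS-1 binding to fluorescent RNA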
T1 sequence (G5EF15 whole entry): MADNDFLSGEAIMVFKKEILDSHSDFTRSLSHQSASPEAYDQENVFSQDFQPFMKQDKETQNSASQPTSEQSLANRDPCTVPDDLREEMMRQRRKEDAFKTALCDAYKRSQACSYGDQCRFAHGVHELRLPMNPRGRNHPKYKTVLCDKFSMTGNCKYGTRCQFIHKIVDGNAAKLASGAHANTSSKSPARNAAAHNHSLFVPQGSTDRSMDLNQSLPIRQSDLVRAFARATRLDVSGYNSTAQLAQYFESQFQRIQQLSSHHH

ORF 73 = molecular target: T2, ORF 73 (Human herpesvirus 8, UniProt O40947); experiment: inhibitors of C-LANA binding to LBS DNA, dose response, biochemical, fluorescence polarization, cherry-picked samples (AID 504725); set-up: species or system Human gammaherpesvirus 8;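 note: fluorescence polarization of a labeled DNA duplex reporting LANA DNA binding; potency is for inhibitors that block LANA binding to the DNA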
T2 sequence (O40947 whole entry): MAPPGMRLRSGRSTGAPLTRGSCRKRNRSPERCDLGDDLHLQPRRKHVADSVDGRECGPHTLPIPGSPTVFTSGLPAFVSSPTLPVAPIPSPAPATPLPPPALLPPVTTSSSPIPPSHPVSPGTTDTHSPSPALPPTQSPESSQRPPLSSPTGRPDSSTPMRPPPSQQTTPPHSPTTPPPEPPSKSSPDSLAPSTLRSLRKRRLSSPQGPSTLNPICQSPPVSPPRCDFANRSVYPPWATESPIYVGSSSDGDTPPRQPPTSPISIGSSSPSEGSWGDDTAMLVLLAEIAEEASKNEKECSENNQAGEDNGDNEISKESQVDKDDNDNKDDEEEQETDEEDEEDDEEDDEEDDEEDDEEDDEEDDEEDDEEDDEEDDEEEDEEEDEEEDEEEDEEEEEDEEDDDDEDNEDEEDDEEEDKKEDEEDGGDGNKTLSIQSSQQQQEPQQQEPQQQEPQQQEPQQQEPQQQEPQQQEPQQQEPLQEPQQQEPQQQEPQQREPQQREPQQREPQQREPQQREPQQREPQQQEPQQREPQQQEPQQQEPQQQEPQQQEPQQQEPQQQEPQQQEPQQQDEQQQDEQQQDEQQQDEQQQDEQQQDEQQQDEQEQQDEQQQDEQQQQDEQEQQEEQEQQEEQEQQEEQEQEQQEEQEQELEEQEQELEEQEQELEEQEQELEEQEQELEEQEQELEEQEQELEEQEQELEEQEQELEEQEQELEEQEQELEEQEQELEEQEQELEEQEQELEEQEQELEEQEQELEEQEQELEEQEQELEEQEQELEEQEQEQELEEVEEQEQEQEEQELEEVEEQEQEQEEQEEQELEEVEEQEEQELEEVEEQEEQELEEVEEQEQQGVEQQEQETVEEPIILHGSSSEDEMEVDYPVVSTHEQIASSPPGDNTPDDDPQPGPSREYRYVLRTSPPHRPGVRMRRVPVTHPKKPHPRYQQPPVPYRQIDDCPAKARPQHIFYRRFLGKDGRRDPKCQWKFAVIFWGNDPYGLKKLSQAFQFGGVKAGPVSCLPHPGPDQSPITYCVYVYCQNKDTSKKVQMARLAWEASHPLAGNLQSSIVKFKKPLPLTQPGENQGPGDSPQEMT

Large T antigen = Large T antigen (Simian virus 40, UniProt P03070); type: functional, Betapolyomavirus macacae;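 note: Confirmatory-stage PubChem screen for compounds that inhibit SV40 T antigen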
Salmon testes DNA = experiment: DNA intercalators displacing acridine orange, dose response, artefact control for KSHV LANA DNA-binding inhibitor project, biochemical, fluorescence polarization, cherry-picked samples, set 2 (AID 504727); set-up: species or system Salmonidae
[4] = molecular target: T3, Zinc finger protein mex-5 (Caenorhabditis elegans, UniProt Q9XUB2); experiment: MEX-5/TCR-2 RNA interaction inhibitors, dose response, biochemical, C. elegans, fluorescence polarization (AID 1960)
T3 sequence (Q9XUB2 whole entry): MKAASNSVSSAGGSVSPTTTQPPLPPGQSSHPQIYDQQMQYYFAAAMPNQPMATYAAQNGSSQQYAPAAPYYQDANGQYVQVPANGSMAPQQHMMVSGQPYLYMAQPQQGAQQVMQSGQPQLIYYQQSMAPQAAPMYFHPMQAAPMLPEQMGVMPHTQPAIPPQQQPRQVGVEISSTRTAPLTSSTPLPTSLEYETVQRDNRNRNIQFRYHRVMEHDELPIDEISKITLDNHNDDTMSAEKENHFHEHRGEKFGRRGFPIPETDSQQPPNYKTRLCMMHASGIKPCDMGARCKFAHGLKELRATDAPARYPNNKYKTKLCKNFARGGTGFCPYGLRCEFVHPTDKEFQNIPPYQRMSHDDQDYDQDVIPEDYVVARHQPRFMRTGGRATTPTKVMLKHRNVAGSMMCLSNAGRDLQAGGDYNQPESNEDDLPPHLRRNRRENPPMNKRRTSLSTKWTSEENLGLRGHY

[5] = molecular target: T4, Histone-lysine N-methyltransferase NSD2 (Homo sapiens, UniProt O96028); type: biochemical
T4 sequence (O96028 whole entry): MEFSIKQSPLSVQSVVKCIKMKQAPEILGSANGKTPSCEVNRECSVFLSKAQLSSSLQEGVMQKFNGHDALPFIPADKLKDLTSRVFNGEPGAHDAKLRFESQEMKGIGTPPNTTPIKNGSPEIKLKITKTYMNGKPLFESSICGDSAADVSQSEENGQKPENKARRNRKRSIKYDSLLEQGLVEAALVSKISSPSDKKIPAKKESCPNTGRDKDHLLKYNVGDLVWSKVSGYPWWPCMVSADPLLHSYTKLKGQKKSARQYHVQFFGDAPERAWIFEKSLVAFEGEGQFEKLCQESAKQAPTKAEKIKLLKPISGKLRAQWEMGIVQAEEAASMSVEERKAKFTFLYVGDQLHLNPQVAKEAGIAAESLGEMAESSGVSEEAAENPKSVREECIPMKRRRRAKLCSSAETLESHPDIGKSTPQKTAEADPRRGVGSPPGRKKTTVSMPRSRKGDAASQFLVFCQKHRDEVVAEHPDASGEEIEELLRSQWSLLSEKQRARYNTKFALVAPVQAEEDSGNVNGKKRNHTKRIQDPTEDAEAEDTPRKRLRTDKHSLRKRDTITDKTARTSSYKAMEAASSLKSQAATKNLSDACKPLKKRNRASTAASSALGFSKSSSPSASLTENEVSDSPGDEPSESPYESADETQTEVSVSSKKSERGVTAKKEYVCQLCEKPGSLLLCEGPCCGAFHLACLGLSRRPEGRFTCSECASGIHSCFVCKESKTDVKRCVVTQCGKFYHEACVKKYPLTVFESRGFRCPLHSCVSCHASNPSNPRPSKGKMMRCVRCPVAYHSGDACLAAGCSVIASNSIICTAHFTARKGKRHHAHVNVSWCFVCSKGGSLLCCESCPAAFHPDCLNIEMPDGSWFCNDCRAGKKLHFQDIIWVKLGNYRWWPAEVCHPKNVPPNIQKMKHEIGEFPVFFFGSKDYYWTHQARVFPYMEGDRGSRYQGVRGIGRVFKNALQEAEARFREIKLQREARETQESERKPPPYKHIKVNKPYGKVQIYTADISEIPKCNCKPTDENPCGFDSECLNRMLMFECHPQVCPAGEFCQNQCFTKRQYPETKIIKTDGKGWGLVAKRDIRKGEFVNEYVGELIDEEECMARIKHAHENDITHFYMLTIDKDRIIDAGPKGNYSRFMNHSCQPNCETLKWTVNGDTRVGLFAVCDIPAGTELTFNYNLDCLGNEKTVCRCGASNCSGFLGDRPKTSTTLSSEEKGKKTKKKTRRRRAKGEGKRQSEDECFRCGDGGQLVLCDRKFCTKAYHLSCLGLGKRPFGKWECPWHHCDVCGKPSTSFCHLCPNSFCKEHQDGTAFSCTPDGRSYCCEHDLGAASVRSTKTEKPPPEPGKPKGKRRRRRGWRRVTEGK

Keap1/Nrf2, sequence (Q16236 whole entry): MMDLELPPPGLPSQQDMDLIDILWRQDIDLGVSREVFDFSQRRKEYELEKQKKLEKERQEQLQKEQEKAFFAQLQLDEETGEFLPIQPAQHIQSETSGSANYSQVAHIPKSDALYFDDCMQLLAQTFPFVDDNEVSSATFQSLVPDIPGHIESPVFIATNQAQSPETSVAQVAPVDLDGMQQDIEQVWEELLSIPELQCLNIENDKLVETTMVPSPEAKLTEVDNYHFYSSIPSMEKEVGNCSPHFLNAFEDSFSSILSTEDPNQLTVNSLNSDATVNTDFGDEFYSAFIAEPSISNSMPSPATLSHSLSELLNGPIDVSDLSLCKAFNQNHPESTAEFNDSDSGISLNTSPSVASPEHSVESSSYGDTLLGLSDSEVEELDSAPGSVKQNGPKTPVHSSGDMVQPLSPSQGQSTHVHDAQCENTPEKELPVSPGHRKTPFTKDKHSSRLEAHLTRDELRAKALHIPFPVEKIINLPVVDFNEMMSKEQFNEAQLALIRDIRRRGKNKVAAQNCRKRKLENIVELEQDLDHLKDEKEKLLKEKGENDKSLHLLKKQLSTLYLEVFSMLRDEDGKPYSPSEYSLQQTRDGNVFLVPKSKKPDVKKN
Keap1/Nrf2, sequence (Q14145 whole entry): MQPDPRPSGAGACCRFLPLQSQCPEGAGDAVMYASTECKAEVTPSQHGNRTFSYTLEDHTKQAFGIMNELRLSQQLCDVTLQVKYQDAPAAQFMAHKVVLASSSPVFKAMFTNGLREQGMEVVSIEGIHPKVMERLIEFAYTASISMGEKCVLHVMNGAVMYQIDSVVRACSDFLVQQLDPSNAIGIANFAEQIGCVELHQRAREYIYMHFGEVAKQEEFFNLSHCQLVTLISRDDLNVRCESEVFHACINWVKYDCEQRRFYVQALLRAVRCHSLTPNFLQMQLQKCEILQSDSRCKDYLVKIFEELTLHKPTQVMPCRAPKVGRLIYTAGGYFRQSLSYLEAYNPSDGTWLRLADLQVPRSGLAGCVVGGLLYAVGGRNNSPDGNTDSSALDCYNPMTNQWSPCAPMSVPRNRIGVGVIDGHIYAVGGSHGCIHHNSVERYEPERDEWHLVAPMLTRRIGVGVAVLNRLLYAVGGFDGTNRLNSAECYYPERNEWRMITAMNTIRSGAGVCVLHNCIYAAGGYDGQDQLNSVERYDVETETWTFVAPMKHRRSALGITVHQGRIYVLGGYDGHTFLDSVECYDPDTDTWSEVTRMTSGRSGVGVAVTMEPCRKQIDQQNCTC
Beta-galactosidase, sequence (Q8VNN2 whole entry): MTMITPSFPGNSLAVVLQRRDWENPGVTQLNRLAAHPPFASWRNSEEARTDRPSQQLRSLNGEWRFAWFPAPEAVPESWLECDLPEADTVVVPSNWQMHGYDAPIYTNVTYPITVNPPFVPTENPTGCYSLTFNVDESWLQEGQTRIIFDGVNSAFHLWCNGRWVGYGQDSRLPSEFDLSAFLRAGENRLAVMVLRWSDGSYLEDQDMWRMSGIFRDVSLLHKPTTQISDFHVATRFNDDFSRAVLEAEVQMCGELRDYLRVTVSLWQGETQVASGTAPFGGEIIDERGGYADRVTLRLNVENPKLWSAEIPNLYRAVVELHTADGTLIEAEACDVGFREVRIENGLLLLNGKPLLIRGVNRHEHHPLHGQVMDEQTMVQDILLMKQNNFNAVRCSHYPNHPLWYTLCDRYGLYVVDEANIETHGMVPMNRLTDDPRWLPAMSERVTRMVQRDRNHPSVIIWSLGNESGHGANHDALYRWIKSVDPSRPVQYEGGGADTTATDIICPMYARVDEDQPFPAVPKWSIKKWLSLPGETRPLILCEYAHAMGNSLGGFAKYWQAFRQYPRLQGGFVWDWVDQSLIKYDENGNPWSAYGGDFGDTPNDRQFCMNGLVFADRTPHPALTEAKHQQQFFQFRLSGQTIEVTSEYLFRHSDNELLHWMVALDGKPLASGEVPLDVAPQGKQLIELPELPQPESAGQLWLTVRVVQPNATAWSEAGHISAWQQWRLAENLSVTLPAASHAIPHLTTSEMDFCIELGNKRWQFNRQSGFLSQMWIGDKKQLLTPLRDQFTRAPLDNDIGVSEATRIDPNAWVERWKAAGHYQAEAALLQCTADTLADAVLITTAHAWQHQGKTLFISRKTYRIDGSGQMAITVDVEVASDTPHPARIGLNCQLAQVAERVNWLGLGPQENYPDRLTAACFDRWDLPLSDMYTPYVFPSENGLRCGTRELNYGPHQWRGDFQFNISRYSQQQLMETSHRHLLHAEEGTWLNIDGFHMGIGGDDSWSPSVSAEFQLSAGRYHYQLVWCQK
Type-1 angiotensin II receptor, sequence (P30556 whole entry): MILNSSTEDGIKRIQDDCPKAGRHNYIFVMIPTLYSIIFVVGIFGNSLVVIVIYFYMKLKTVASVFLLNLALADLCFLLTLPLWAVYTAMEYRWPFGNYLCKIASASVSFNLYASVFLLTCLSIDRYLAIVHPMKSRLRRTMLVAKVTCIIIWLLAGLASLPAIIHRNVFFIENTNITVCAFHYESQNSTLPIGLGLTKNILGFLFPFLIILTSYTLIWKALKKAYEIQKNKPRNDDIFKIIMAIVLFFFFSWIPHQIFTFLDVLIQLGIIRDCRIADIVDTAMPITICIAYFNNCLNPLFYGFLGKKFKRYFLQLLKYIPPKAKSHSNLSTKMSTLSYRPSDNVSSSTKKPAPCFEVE
Large T antigen, sequence (P03070 whole entry): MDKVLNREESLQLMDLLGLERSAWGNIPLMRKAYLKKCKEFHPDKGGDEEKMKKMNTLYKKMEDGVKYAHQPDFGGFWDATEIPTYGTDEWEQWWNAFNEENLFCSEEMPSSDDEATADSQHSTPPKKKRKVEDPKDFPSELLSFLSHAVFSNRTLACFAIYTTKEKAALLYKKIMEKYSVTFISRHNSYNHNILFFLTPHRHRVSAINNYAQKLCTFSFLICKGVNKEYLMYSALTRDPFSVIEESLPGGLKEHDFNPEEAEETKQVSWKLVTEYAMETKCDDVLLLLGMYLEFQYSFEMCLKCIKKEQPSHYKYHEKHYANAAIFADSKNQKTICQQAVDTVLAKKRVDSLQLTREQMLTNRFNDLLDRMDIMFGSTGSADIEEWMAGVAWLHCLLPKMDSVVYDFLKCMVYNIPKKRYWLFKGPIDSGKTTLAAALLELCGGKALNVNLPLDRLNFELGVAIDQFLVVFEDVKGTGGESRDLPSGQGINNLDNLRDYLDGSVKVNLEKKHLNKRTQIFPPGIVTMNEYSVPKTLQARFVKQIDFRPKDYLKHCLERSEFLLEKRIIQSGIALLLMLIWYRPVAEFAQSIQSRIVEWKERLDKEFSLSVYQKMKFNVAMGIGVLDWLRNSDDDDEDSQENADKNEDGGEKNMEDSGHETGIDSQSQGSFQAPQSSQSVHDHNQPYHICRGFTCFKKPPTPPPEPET
Dual specificity protein kinase CLK1, sequence (P49759 whole entry): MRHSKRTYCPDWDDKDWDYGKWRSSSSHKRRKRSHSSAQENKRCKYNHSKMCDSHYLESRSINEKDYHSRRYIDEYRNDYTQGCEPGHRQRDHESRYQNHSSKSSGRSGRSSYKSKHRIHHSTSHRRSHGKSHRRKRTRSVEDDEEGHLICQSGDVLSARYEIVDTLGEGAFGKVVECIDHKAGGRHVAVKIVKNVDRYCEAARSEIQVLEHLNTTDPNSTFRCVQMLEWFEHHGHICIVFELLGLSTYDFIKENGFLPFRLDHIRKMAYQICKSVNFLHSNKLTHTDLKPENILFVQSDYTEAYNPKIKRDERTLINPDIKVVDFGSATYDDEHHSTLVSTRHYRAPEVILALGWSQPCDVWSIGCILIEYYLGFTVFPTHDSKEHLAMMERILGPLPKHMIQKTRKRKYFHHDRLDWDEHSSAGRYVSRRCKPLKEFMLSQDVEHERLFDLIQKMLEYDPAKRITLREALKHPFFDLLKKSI

**Q.** What does the source list for `O=C(OCC(=O)c1ccc(Cl)cc1Cl)c1ccc2c(c1)C(=O)N(c1cccc3ncccc13)C2=O`?
**A.** EC50 (Beta-galactosidase): > 40 µM (inactive); IC50 [1]: 39.4 µM (not active)

**Q.** How did the AC50 [2] turn out when `FC(F)(F)c1cccc(Nc2nccc(-c3ccc4c(c3)OCO4)n2)c1` was run?
**A.** 15.7 µM (active)

**Q.** Which results are given for `O=C(O)CCNc1ccc(NCCC(=O)O)c2c1C(=O)c1ccccc1C2=O`?
**A.** AC50 (Keap1/Nrf2): > 52 µM (inactive); AC50 (HeLa): 35 µM (active); EC50 [3]: 12.9 µM (active); AC50 (ORF 73): 22.8 µM (active); IC50 (Large T antigen): 26.7 µM (active); AC50 (Salmon testes DNA): 37.8 µM (active); EC50 [4]: 15.3 µM (inconclusive); AC50 [5]: 11.2 µM (active)
